According to article PMC5515982, “Hair analysis for the biomonitoring of pesticide exposure: comparison with blood and urine in a rat model” (Archives of Toxicology, 2016):
Several values for one entry are separate records, joined by “and”; a condition that tells them apart may be missing. Identical values can stand only once.

Legend:
[1] = Concentration of pesticides and metabolites in plasma of rats after 90-day gavage exposure to a pesticide mixture; format: in vivo, rat; settings: for Slope (linear fit), concentration in plasma versus level of exposure: exposure expressed as mg/kg per day, concentration as ng/mL, detected values only
Protocol: (§1) Eight rats were randomly assigned to each of the experimental groups. A low-calorie water gel that contained the pesticides was administered via gavage to these rats three times per week for 90 days. The doses of the pesticides mixture used for exposure were 4, 10, 20, 40, 100, 200, and 400 µg/kg of body weight. The exposure range was set as follows: The lowest dose was the lowest level allowing the detection of pesticides in hair after a 90-day exposure, based on preliminary experiments not detailed here. Testing lower levels would not have been relevant because some compounds would not be detected anymore (analytical limitation). In addition, for some other compounds, no differences were detected in the current experiment between the lowest level of exposure and the background exposure of the controls. The highest dose was set according to toxicity of compounds, which corresponded to 1/20 of the lowest LD50 (carbofuran). The animals were weighed before each administration in order to adapt the amount of pesticide-containing mixture to the animals’ weight.
(§2) The animals were shaved before the experiment began to ensure that the hair collected at the end of the study accurately reflected the 90-day period of exposure. White and black hairs were collected separately, placed in aluminum foil, and stored at −20 °C until analysis. Blood was collected in EDTA tube from the tail vein, 3 h after oral administration on Day 90. Each sampling (500–750 µL) was immediately centrifuged at 5000×g for 3 min at room temperature, and plasma was separated and stored at −80 °C before analysis. For urine collection, the rats were placed in individual metabolic cages (Type 304 stainless steel, Techniplast, Zwaag, Netherlands) immediately after gavage for 24 h (from Day 88 to Day 89). The urine was collected in refrigerated tubes over a 24-h period and was weighed before storage at −20 °C.
(§3) Depending on the compounds, only parent pesticides, only metabolites, or both parent and metabolites were analyzed in the biological matrices. The chemicals were analyzed as previously described (Chata et al. [2016]; Hardy et al. [2015]). Despite the different nature of the biological matrices analyzed (liquid vs. solid), method protocols were developed to ensure similarity so they could be reliably compared to the information obtained from each matrix, thereby ensuring that differences were not likely attributable to analytical bias. […] Because analytical background noise was absent from the chromatograms because tandem mass spectrometry was used, the approaches based on background noise for determining the limit of detection (LOD) were not applicable. The LOD was therefore determined as the lowest concentration that was detected in the samples analyzed during this study. Selectivity was ensured by analyte retention time and by the quantification transition to confirmation transition ratio that had to be lower than the 20% difference from the ratio obtained with standard compounds. The LOD ranged from 0.02 pg/mg for β-endosulfan to 2.7 pg/mg for dichlorodiphenyltrichloroethane (p,p′-DDT) in hair, from 0.2 pg/mL for trifluralin to 13.6 ng/mL for 2-isopropoxyphenol (2-IPP) in urine, and from 2.4 pg/mL for β-endosulfan to 679 pg/mL for p,p′-DDT in plasma. Because the analysis of parent pesticides and metabolites was conducted on the same hair sample, the addition of parent organophosphate isotope-labeled analog standards was not possible because their degradation into non-labeled dialkyl phosphate (DAP) during the analytical procedure would have hindered the analysis of DAP due to exposure. In hair, only organophosphate metabolites (not parents) were therefore quantified, and only qualitative results were obtained for parents.
(§4) The association between the level of exposure and the analyte concentration in the matrix (i.e., hair, urine, and plasma) was assessed by the Pearson product-moment correlation coefficient (R Pearson). […]

[2] = ref Timchalk et al. [2007], cited from earlier work
[3] = Concentration of pesticides and metabolites in hair of rats after 90-day gavage exposure to a pesticide mixture; format: in vivo, rat; settings: exposure expressed as mg/kg per day, concentration as pg/mg, detected values only
Protocol: as §1, §2, §3, §4

[4] = Concentration of pesticides and metabolites in 24-h urine of rats after 90-day gavage exposure to a pesticide mixture; format: in vivo, rat; settings: for Slope (linear fit), concentration in urine versus level of exposure: exposure expressed as mg/kg per day, concentration as ng/mL, detected values only
Protocol: as §1, §2, §3, §4

[5] = Influence of hair pigmentation: concentration in white hair versus pigmented hair; format: in vivo, rat; settings: slope close to 1 = poor influence of pigmentation
Protocol: as §2
The influence of hair pigmentation on pesticide incorporation was assessed by comparing the concentration detected in white hair versus pigmented hair which were collected and analyzed separately from each animal. […] For the majority of the chemicals tested during the current study, pigmentation seemed to have a very limited effect on the concentration in hair, and only few compounds seemed to be pigmentation sensitive.

SMILES	Mean concentration in plasma ([1]; control group)	Mean concentration in plasma ([1]; most exposed group)	Slope (linear fit), concentration in plasma versus level of exposure [1]	Metabolization of the parent compound [2]	Slope (linear fit), concentration in hair versus level of exposure [3]	Slope (linear fit), concentration in urine versus level of exposure [4]	Slope, concentration in white hair versus pigmented hair [5]	Half-life for α-phase in rat blood ([2]; after oral dosing of chlorpyrifos)	Concentration in urine, single point out of scale ([4]; dosage of 200 µg/kg, one animal, not presented in Fig. 1)
CCOP(=S)(OCC)Oc1nc(Cl)c(Cl)cc1Cl [Chlorpyrifos]	0.15 ± 0.01 ng/mL	0.41 ± 0.09 ng/mL	1.24	0.2 h	–	–	–	–	–
CCOP(=O)(O)OCC [DEP, diethyl phosphate]	–	–	–	–	4.54	2.0 E + 06	0.892	12 min	–
Cl[C@H]1[C@H](Cl)[C@@H](Cl)[C@H](Cl)[C@@H](Cl)[C@@H]1Cl [β-HCH, β-hexachlorocyclohexane]	–	–	199	–	612 and 612.6	6 297	1.021	–	–
Cl[C@H]1[C@H](Cl)[C@@H](Cl)[C@@H](Cl)[C@H](Cl)[C@H]1Cl [γ-HCH, γ-hexachlorocyclohexane]	–	–	47.2	–	119.8	5 715	0.969	–	9 ng/mL
